This passage reports IC50 results from patent publication US10899710B2, “Pyridines and their use in the treatment of cancer” (The United States of America, as represented by the …, priority 2015, dated 2021).

Experiment [1] concerns the target T1, recombinant thioredoxin reductase 1 (TrxR1) (Homo sapiens, UniProt Q16881).
T1 sequence (Q16881 151-649 limits assumed): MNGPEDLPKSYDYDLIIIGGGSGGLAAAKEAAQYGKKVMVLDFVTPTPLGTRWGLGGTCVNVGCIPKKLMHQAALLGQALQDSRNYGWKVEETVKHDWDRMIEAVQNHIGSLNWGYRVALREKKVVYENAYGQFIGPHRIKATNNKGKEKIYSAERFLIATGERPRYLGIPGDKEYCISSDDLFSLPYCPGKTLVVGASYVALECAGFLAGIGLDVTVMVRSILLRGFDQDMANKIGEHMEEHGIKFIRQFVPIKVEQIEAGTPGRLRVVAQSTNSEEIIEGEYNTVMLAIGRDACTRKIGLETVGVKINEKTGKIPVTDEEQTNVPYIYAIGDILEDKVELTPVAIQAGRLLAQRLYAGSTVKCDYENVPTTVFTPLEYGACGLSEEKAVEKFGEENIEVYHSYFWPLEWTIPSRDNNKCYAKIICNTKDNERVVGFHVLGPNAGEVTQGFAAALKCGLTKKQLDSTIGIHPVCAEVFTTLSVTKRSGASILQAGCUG
Description: Inhibition of recombinant TrxR1 (DTNB assay). It counts as biochemical. The conditions noted are these: read-out: TrxR inhibition (IC50). As for the experimental part:
(§1) Small molecule inhibition of recombinant thioredoxin reductase 1 (TrxR1) and gluthathione reductase (GR) was examined in 96-well plate format. 15 nM TrxR1 was incubated in the presence of 250 μM NADPH, 0.1 mg/ml BSA, and various concentrations of the compound of Example 1 (1% DMSO final) in 50 mM Tris (pH 7.5) and 2 mM EDTA buffer for 15 minutes. Following the incubation period, 2.5 mM DTNB was added to each well and the change in O.D. at 412 nm was followed. Percent activity was determined using DMSO vehicle and no TrxR1 (blank) controls. 2 nM GR was incubated in the presence of 250 μM NADPH, 0.1 mg/ml BSA, and various concentrations of compounds (1% DMSO final) in 50 mM Tris (pH 7.5) and 2 mM EDTA buffer for 15 minutes. Following the incubation period, 1 mM GSSG was added to each well and the change in O.D. at 340 nm was followed. Percent activity was determined using DMSO vehicle and no GR (blank) controls.

For experiment [2], the target named is T2, gluthathione reductase (GR) (Homo sapiens, UniProt P00390).
T2 sequence (P00390 44-522): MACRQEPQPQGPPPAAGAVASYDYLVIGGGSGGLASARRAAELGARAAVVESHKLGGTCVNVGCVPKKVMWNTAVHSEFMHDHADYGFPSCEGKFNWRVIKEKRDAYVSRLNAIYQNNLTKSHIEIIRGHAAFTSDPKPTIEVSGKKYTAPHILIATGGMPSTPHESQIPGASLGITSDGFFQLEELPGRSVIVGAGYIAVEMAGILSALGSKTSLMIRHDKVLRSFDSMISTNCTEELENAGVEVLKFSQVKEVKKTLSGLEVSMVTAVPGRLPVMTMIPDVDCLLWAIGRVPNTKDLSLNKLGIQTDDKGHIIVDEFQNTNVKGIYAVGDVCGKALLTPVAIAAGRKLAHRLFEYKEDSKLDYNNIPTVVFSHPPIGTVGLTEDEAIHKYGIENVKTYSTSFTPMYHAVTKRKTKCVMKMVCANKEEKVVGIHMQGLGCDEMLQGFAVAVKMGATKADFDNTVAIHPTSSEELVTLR
Description: Inhibition of recombinant GR (GSSG assay). It counts as biochemical. As for the experimental part:
as §1

Experiment [3] relates to FaDu cell line. Description: Cell viability inhibition, FaDu cell line. Conditions: Homo sapiens, Biological Example 4, 72 hrs. In kind it is cell-based. As to the method:
Cell lines were plated 2000 cells/well in 96-well black optical plates in the presence of 10% FBS media containing 25 nM selenite. The following day cells were treated with various concentrations of the compound of Example 1 (0.1% DMSO final) and incubated for 72 hrs. After the incubation Cell-Quanti Blue reagent was added to each well and incubated for additional 3 hrs. Fluorescence was read ex:530 nm/em:590 nm, and percent of viability was determined using DMSO vehicle and no cell (blank) controls.
Using the assays described in Biological Example 1 to assess inhibition of recombinant TrxR1 and GR, the following IC50 values were obtained for the examples described herein. Further, following the protocol described in Biological Example 2, the following IC50 values were obtained for inhibition of cell viability using the FaDu cell line.

[4] abbreviates: Biological Example 1, 15 nM TrxR1, 15 minutes incubation.
Where [5] appears, read: Biological Example 1, 2 nM GR, 15 minutes incubation.

Counter-ions that a name gives are not always drawn. Like-named read-outs stand apart in the source and are kept apart here. Where only a bound is given, the exact number is not on record here.

Usually IC50 stands for the point on the concentration scale where inhibition reaches its midpoint. As to `O=[N+]([O-])c1cccnc1S(=O)(=O)c1ccccc1` [Example 2, 3-Nitro-2-(phenylsulphonyl)pyridine Trifluoroacetate], the IC50 is 0.155 µM in experiment [1] (setting [4]); 0.289 µM in experiment [1] (Biological Example 4); over 100 µM in experiment [2] (setting [5]); over 100 µM in experiment [2] (Biological Example 4); 1.42 µM in experiment [3].
Consider `Cc1ccc(S(=O)(=O)c2ncccc2[N+](=O)[O-])cc1` [Example 3, 3-Nitro-2-tosylpyridine Hydrochloride], for which the IC50 in experiment [1] (setting [4]) is 0.282 µM; in experiment [1] (Biological Example 4), 0.221 µM; in experiment [2] (setting [5]), over 100 µM; in experiment [2] (Biological Example 4), over 100 µM; in experiment [3] it was 2.55 µM.
For the compound `COc1ccc([N+](=O)[O-])c(S(=O)(=O)c2ccccc2)n1` [Example 4, 6-Methoxy-3-nitro-2-(phenylsulphonyl)pyridine Trifluoroacetate], the IC50 in experiment [1] (setting [4]) was 0.024 µM; in experiment [1] (Biological Example 4), 0.024 µM; in experiment [2] (setting [5]) it was 25.2 µM; in experiment [2] (Biological Example 4), 30.8 µM; in experiment [3], 3.26 µM.
Turning to `O=[N+]([O-])c1cccnc1S(=O)(=O)c1ccc(Cl)cc1` [Example 5, 2-((4-Chlorophenyl)sulphonyl)-3-nitropyridine Trifluoroacetate], the IC50 was 0.098 µM in experiment [1] (setting [4]); 0.151 µM in experiment [1] (Biological Example 4); 47.9 µM in experiment [2] (setting [5]); 93 µM in experiment [2] (Biological Example 4); 1.84 µM in experiment [3].
Regarding `COc1ccc([N+](=O)[O-])c(S(=O)(=O)c2ccc(C)cc2)n1` [Example 6, 6-Methoxy-3-nitro-2-tosylpyridine], the IC50 in experiment [1] (Biological Example 4) is 0.103 µM; in experiment [2] (Biological Example 4), over 100 µM; in experiment [3], 1.38 µM.
For `COc1ccc(S(=O)(=O)c2nc(OC)ccc2[N+](=O)[O-])cc1` [Example 7, 6-Methoxy-2-((4-methoxyphenyl)sulfonyl)-3-nitropyridine], in that order: 0.228 µM, over 100 µM and 2.75 µM.
For `O=[N+]([O-])c1ccc(Cl)nc1S(=O)(=O)c1ccc(Cl)cc1` [Example 8, 6-Chloro-2-((4-chlorophenyl)sulfonyl)-3-nitropyridine], the 50% inhibitory concentration (IC50) in experiment [1] (Biological Example 4) was found to be 0.016 µM; in experiment [2] (Biological Example 4) it was 3.57 µM; in experiment [3] it was 0.84 µM.
The like results for `COc1ccc(S(=O)(=O)c2nc(Cl)ccc2[N+](=O)[O-])cc1` [Example 9, 6-Chloro-2-((4-methoxyphenyl)sulfonyl)-3-nitropyridine] were, in that order, 0.07 µM, 41.7 µM and 0.51 µM.
For `O=[N+]([O-])c1ccc(Cl)nc1S(=O)(=O)c1ccccc1` [Example 10, 6-Chloro-3-nitro-2-(phenylsulfonyl)pyridine], in that order: 0.056 µM, 14.5 µM and 0.25 µM.
The like results for `Cc1ccc(S(=O)(=O)c2nc(Cl)ccc2[N+](=O)[O-])cc1` [Example 11, 6-Chloro-3-nitro-2-tosylpyridine] were, in that order, 0.04 µM, 23.7 µM and 0.39 µM.
Take `COc1ccc(S(=O)(=O)c2nc(N(C)C)ccc2[N+](=O)[O-])cc1` [Example 12, 6-((4-Methoxyphenyl)sulfonyl)-N,N-dimethyl-5-nitropyridin-2-amine]: the IC50 is 0.513 µM in experiment [1] (Biological Example 4), over 100 µM in experiment [2] (Biological Example 4) and 7.89 µM in experiment [3].
The like results for `CN(C)c1ccc([N+](=O)[O-])c(S(=O)(=O)c2ccc(Cl)cc2)n1` [Example 13, 6-((4-Chlorophenyl)sulfonyl)-N,N-dimethyl-5-nitropyridin-2-amine] were, in that order, 0.176 µM, over 100 µM and 12.9 µM.
For `CN(C)c1ccc([N+](=O)[O-])c(S(=O)(=O)c2ccccc2)n1` [Example 14, N,N-dimethyl-5-nitro-6-(phenylsulfonyl)pyridin-2-amine], in that order: 0.345 µM, over 100 µM and 5.32 µM.
For `Cc1ccc(S(=O)(=O)c2nc(N(C)C)ccc2[N+](=O)[O-])cc1` [Example 15, N,N-dimethyl-5-nitro-6-tosylpyridin-2-amine], in that order: 0.438 µM, over 100 µM and 5.91 µM.
